Several values for one entry are separate records, joined by “and”; a condition that tells them apart may be missing. Equal values may be shown once.
Legend:
Assay type in all cases: in vivo
[1] = system: tomato seedlings p1002-18-3; assay: Transient induction: tomato seedlings on 20 μM ACC, inducer removed after 2-14 days; conditions: for Hypocotyl (mm) / Root (mm) / Hypocotyl Percent (%) / Root Percent (%): p1002-18-3 tomato; for Hypocotyl (mm) / Root (mm): dark, 14 day old seedlings
Protocol: After 14 days growth in the dark, hypocotyls and roots were measured to assess ethylene insensitivity. Ethylene insensitive seedlings would be expected to have longer hypocotyls and roots. […] Thus, root and hypocotyl growth of the reversed seedlings should be intermediate between the sensitive and insensitive seedlings.

[2] = system: Wild-type, ein2-5 and p1002 Arabidopsis transformant seedlings; assay: Triple response assay, Arabidopsis seedlings, root and hypocotyl growth with ethylene; conditions: for Roots (mm) Avg / Hypocotyls (mm) Avg: 11 days
Protocol: (§1) A triple response assay (Guzman and Ecker, 1990 cited above, modified as described below) was used to determine the modulation of ethylene sensitivity in the transformed Arabidopsis plants of Example 4. Arabidopsis seed was surface-sterilized and imbibed in 20 μM inducer in the dark for 4 days at 4° C. The seed was plated on 0.5× MS with 1% sucrose and 20 μM inducer and for mutant receptors treated with 10 ppm ethylene or 1 ppm ethylene for wild-type receptors and grown in the dark for 4-8 days at 21° C. The response to ethylene was scored on the last day.
Wild-type, ein2-5 (an ethylene insensitive mutant control), and p1002 Arabidopsis transformant seedlings were assayed for ethylene insensitivity using the triple response assay (Guzman and Ecker, 1990, cited above, with the following modifications) in which seeds were germinated on 0.5× MS media for 11 days in the dark in the presence of 10 ppm ethylene. Root and hypocotyl growth is inhibited by ethylene in ethylene sensitive but not in ethylene insensitive seedlings.

[3] = system: transformed tobacco plants; assay: Triple response assay, shoot length of transformed tobacco shoots in dark with ethylene; conditions: for Shoot Length Avg (cm) / Shoot Length (cm): induced, 10 μM inducer, ethylene about 10 ppm, 18 days; for Shoot Length (cm): single shoots
Protocol: A triple response assay as described in Guzman and Ecker 1990 The Plant Cell, 2:513-523, modified as provided herein, was conducted to determine the effect of the modulation of ethylene sensitivity in the transformed tobacco plants of Example 2. From each transformed plant designated 185-1, 184-3, 185-8, 185-11, 187-7, 187-13, 187-17 and 187-21, two leaves from each plant were cut into small pieces. These pieces were plated onto MSS plates containing […] kanamycin, with or without 10 μM inducer, i.e., 3,5 Dimethyl-benzoic acid N-(1-ethyl-2,2-dimethyl-propyl)-N′-(3S-hydroxymethyl-5-methyl-2,3-dihydro-benzo[1,4]dioxine-6-carbonyl)hydrazide. MSS plates without antibiotic or inducer were used as controls.
These plated plant tissues were grown at 25° C. with light in growth chambers to induce shoots. Shoots were transferred into fresh plates for about two weeks for continued growth at 25° C. Each callus was then transferred to new culture dishes with or without inducer. Each callus with shoots starting to initiate was split into several plates with approximately equal amounts of callus per plate.
The plates were then separated into groups for the following treatment protocols which lasted for 18 days
Shoot length was measured, and the relative assessment of the efficacy of the transgenic plants prepared according to the Examples based on raw data for shoot length is reported in Table I for conditions (a) through (d) above. Typically, wild-type shoots exposed to ethylene in the dark display stunted growth. Ethylene insensitive plants under these conditions should show elongated growth. […] Shoots grown in the light produced uninterpretable data.

[4] = system: transformed tomato plants; assay: Triple response assay, transformed tomato plants with ethylene; conditions: transgenic tomato with etr1-1 cassettes, 20 μM inducer, dark, 4-8 days
Protocol: as §1, with “1990,” for “1990”, “tomato plants. Tomato” for “Arabidopsis plants of Example 4. Arabidopsis”

[5] = 10 μM inducer, 2 days with inducer, 12 days without, 20 μM ACC
[6] = 10 μM inducer, 2 days with inducer, 12 days without, relative to 14 days with inducer
[7] = 10 μM inducer, 4 days with inducer, 10 days without, 20 μM ACC
[8] = 10 μM inducer, 4 days with inducer, 10 days without, relative to 14 days with inducer
[9] = 10 μM inducer, 6 days with inducer, 8 days without, 20 μM ACC
[10] = 10 μM inducer, 6 days with inducer, 8 days without, relative to 14 days with inducer
[11] = 10 μM inducer, 8 days with inducer, 6 days without, 20 μM ACC
[12] = 10 μM inducer, 8 days with inducer, 6 days without, relative to 14 days with inducer
[13] = 10 μM inducer, 14 days with inducer, 0 days without (reference)
[14] = 10 μM inducer, 14 days with inducer, 0 days without, 20 μM ACC
[15] = Arabidopsis, presence of inducer, 10 ppm ethylene
[16] = Ein2-5 seedlings, 20 μM inducer, 10 ppm ethylene, dark
[17] = WT seedlings, 20 μM inducer, 10 ppm ethylene, dark
[18] = p1002-1-4 seedlings, 20 μM inducer, 10 ppm ethylene, dark
[19] = p1002-3-4 seedlings, 20 μM inducer, 10 ppm ethylene, dark
[20] = p1002-11-3 seedlings, 20 μM inducer, 10 ppm ethylene, dark
[21] = p1002-23-2 seedlings, 20 μM inducer, 10 ppm ethylene, dark
[22] = p1002-24-4 seedlings, 20 μM inducer, 10 ppm ethylene, dark

CCC(N(NC(=O)c1ccc2c(c1C)O[C@@H](CO)CO2)C(=O)c1cc(C)cc(C)c1)C(C)(C)C (stereo partly drawn) [inducer, 3,5 Dimethyl-benzoic acid N-(1-ethyl-2,2-dimethyl-propyl)-N′-(3S-hydroxymethyl-5-methyl-2,3-dihydro-benzo[1,4]dioxine-6-carbonyl)hydrazide]
Hypocotyl (mm) [1, 5]: 16.9 ± 4.30 mm | Root (mm) [1, 5]: 26.2 ± 15.3 mm | Hypocotyl Percent (%) [1, 6]: 63.8% | Root Percent (%) [1, 6]: 69.9% | Hypocotyl (mm) [1, 7]: 19.5 ± 7.52 mm | Root (mm) [1, 7]: 28.7 ± 14.7 mm | Hypocotyl Percent (%) [1, 8]: 73.6% | Root Percent (%) [1, 8]: 76.5% | Hypocotyl (mm) [1, 9]: 26.8 ± 6.27 mm | Root (mm) [1, 9]: 29.8 ± 9.61 mm | Hypocotyl Percent (%) [1, 10]: 101% | Root Percent (%) [1, 10]: 79.5% | Hypocotyl (mm) [1, 11]: 26.0 ± 10.3 mm | Root (mm) [1, 11]: 38.3 ± 9.15 mm | Hypocotyl Percent (%) [1, 12]: 98.1% | Root Percent (%) [1, 12]: 102% | Hypocotyl Percent (%) [1, 13]: 100% | Root Percent (%) [1, 13]: 100% | Hypocotyl (mm) [1, 14]: 26.5 ± 7.51 mm | Root (mm) [1, 14]: 37.5 ± 13.2 mm | duration of induction sufficient for a full state of ethylene insensitivity ([1]; tomato p1002 line, 10 μM inducer, 20 μM ACC): Six days was sufficient to induce a full state of ethylene insensitivity | reversal after removal of inducer ([1]; tomato p1002 line, induced for 2 or 4 days then removed from inducer, compared to non-induced control): showed return to a state of ethylene sensitivity | root length of most p1002 transformants versus wild-type or ein2 mutant seedlings ([2]; Arabidopsis, inducer in the presence of silver, 10 ppm ethylene): not significantly longer | effect on hypocotyls of p1002 transformants [2, 15]: No effect was observed | root length of p1002 transformants relative to wild-type seedlings [2, 15]: significantly longer | Roots (mm) Avg ([2]; Ein2-5 seedlings, 20 μM inducer + 5 μM AgNO3, 10 ppm ethylene, dark): 12.4 mm | Hypocotyls (mm) Avg [2, 16]: ~30 mm | Roots (mm) Avg [2, 16]: 19.9 mm | Roots (mm) Avg ([2]; WT seedlings, 20 μM inducer + 5 μM AgNO3, 10 ppm ethylene, dark): 13.9 mm | Hypocotyls (mm) Avg [2, 17]: 12 mm | Roots (mm) Avg [2, 17]: 3.92 mm | Roots (mm) Avg ([2]; p1002-1-4 seedlings, 20 μM inducer + 5 μM AgNO3, 10 ppm ethylene, dark): 11.8 mm | Hypocotyls (mm) Avg [2, 18]: 12.3 mm | Roots (mm) Avg [2, 18]: 5.8 mm | Roots (mm) Avg ([2]; p1002-3-4 seedlings, 20 μM inducer + 5 μM AgNO3, 10 ppm ethylene, dark): 17.4 mm | Hypocotyls (mm) Avg [2, 19]: 12.7 mm | Roots (mm) Avg [2, 19]: 6.7 mm | Roots (mm) Avg ([2]; p1002-11-3 seedlings, 20 μM inducer + 5 μM AgNO3, 10 ppm ethylene, dark): 11.7 mm | Hypocotyls (mm) Avg [2, 20]: 12.1 mm | Roots (mm) Avg [2, 20]: 5.6 mm | Roots (mm) Avg ([2]; p1002-23-2 seedlings, 20 μM inducer + 5 μM AgNO3, 10 ppm ethylene, dark): 10.5 mm | Hypocotyls (mm) Avg [2, 21]: 12.1 mm | Roots (mm) Avg [2, 21]: 6.04 mm | Roots (mm) Avg ([2]; p1002-24-4 seedlings, 20 μM inducer + 5 μM AgNO3, 10 ppm ethylene, dark): 13.1 mm | Hypocotyls (mm) Avg [2, 22]: 12.2 mm | Roots (mm) Avg [2, 22]: 4.96 mm | ethylene insensitivity, based on increased shoot length and/or altered root growth compared to non-induced transgenic plants ([2]; transgenic Arabidopsis with etr1-1 cassettes, 20 μM inducer, ethylene, dark, 4-8 days): demonstrated ethylene insensitivity | Shoot Length Avg (cm) ([3]; tobacco plant 185-1 (VGE)): 2.8 cm | Shoot Length Avg (cm) ([3]; tobacco plant 185-8 (VGE)): 4.6 cm | Shoot Length (cm) ([3]; tobacco plant 185-8 (VGE)): 5.5 cm and 5.0 cm and 4.0 cm and 4.4 cm and 4.3 cm | Shoot Length Avg (cm) ([3]; tobacco plant 185-11 (VGE)): 4.0 cm | Shoot Length (cm) ([3]; tobacco plant 185-11 (VGE)): 4.0 cm and 4.5 cm and 3.0 cm | Shoot Length Avg (cm) ([3]; tobacco plant 187-7 (GVE)): 3.0 cm | Shoot Length (cm) ([3]; tobacco plant 187-7 (GVE)): 3.0 cm | Shoot Length Avg (cm) ([3]; tobacco plant 187-13 (GVE)): 3.9 cm | Shoot Length (cm) ([3]; tobacco plant 187-13 (GVE)): 4.0 cm and 3.5 cm and 5.0 cm and 3.0 cm | Shoot Length Avg (cm) ([3]; tobacco plant 187-17 (GVE)): 4.3 cm | Shoot Length (cm) ([3]; tobacco plant 187-17 (GVE)): 5.6 cm and 3.5 cm | Shoot Length Avg (cm) ([3]; tobacco plant 187-21 (GVE)): 3.4 cm | Shoot Length (cm) ([3]; tobacco plant 187-21 (GVE)): 4.0 cm and 3.5 cm and 3.0 cm and 2.5 cm | ethylene insensitivity, based on increased shoot length compared to non-induced transgenic plants ([3]; transgenic tobacco with etr1-1 cassettes, presence of inducer, ethylene): demonstrated ethylene insensitivity | ethylene insensitivity, based on increased shoot length and/or altered root growth compared to non-induced transgenic plants [4]: demonstrated ethylene insensitivity

Source: patent US8168860B2, “Compositions and methods for the modification of physiological responses in plants” (Rohm and Haas Company, priority 2007, dated 2012)
